Consider three compounds from patent publication US20240376094A2, “SELECTIVE BCL-XL PROTAC COMPOUNDS AND METHODS OF USE” (Les Laboratoires Servier, priority 2021, published 2024).

For the experiment, the target named is T1, endogenous BCL-xL (Homo sapiens, UniProt Q07817).
T1 construct: endogenous in cells; host or cells: COR-L105 (ECACC No. 92031918); NCI-H1650 (ATCC No. CRL-5883)
T1 sequence (Q07817 whole entry): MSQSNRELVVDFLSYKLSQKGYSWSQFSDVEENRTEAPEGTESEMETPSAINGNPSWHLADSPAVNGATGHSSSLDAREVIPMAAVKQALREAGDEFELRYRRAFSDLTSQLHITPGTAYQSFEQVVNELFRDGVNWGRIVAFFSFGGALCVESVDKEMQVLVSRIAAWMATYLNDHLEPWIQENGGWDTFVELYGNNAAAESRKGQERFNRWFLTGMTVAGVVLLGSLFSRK
The experiment can be described thus: Degradation of endogenous BCL-xL in NCI-H1650 (ProteinSimple Jess). As to conditions: NCI-H1650, dose 10 nM, 24 hours. It counts as cell-based. Here is the method:
The BCL-xL degrader low molecular weight compounds were tested against two endogenous cancer cell lines: • COR-L105: ECACC No. 92031918 cultured in RPMI-1640+10% FBS • NCI-H1650: (ATCC No. CRL-5883 cultured in RPMI-1640+10% FBS
The ability of the BCL-xL degrader low molecular weight compounds to degrade endogenous BCL-xL was assessed using the ProteinSimple 2-40 kDa Jess Separation Module.
Cell lines were cultured in media that is optimal for their growth at 5% CO2, 37° C. in a tissue culture incubator. Prior to seeding for the degradation assay, the cells were split at least 2 days before the assay to ensure optimal growth density. On the day of seeding, adherent cells were lifted off tissue culture flasks using 0.25% trypsin. Cell viability and cell density were determined using a cell counter (Vi-Cell XR Cell Viability Analyzer, Beckman Coulter). Cells with higher than 85% viability were seeded for the assay.
The COR-L105 and the NCI-H1650 cell line were seeded in 6-well clear TC-treated multiple well plates (Costar® cat. #3516). Cells were seeded at a density of 2,000,000 cells per well in 2.5 mL of standard growth media. Plates were incubated at 5% CO2, 37° C. overnight in a tissue culture incubator. On the day of dosing, BCL-xL degrader low molecular weight compounds and a BCL-xL inhibitor control were prepared at 6× in standard growth media. […] A control well of untreated cells was also included in the study. Each drug concentration was tested in singlet. Plates were incubated at 5% CO2, 37° C. for 24 hours in a tissue culture incubator.
After 24 hours, the adherent cells were lifted off tissue culture plates using 0.25% trypsin. Standard growth media was added to quench the trypsin and centrifuged for 5 minutes at 1500 rpm. […]
Protein was quantified using a Pierce™ BCA Protein Assay Kit (ThermoFisher, cat #23225) following the manufacturer's instructions. […] A SpectraMax M Series Multi-Mode Microplate Reader was used to measure the absorbance at 562 nm. […] Only values that fell within the range of the standard curve were accepted for quantification. […]
For the compound `Cc1ncsc1-c1ccc([C@H](C)NC(=O)[C@@H]2C[C@@H](O)CN2C(=O)[C@@H](NC(=O)CCCCCCCCCCCN2CCN(CC#Cc3ccc(OCCCc4sc(N5CCCc6c5nnc(Nc5nc7ccccc7s5)c6C)nc4C(=O)O)c(F)c3)CC2)C(C)(C)C)cc1` [Example 51, 2-(3-(benzo[d]thiazol-2-ylamino)-4-methyl-6,7-dihydropyrido [2,3-c]pyridazin-8(5H)-yl)-5-(3-(2-fluoro-4-(3-(4-(12-(((S)-1-((2S,4R)-4-hydroxy-2-(((S)-1-(4-(4-methylthiazol-5-yl)phenyl)ethyl)carbamoyl)pyrrolidin-1-yl)-3,3-dimethyl-1-oxobutan-2-yl)amino)-12-oxododecyl)piperazin-1-yl)prop-1-yn-1-yl)phenoxy)propyl)thiazole-4-carboxylic acid], the “% BCL-xL vs. Untreated, NCI-H1650” value amounted to 9.22%.
The value for `Cc1ncsc1-c1ccc([C@H](C)NC(=O)[C@@H]2C[C@@H](O)CN2C(=O)[C@@H](NC(=O)CCCCCCCCCCC(=O)N2CCN(CC#Cc3ccc(OCCCc4sc(N5CCCc6c5nnc(Nc5nc7ccccc7s5)c6C)nc4C(=O)O)c(F)c3)CC2)C(C)(C)C)cc1` [Example 46, 2-(3-(benzo[d]thiazol-2-ylamino)-4-methyl-6,7-dihydropyrido [2,3-c]pyridazin-8(5H)-yl)-5-(3-(2-fluoro-4-(3-(4-(12-(((S)-1-((2S,4R)-4-hydroxy-2-(((S)-1-(4-(4-methylthiazol-5-yl)phenyl)ethyl)carbamoyl)pyrrolidin-1-yl)-3,3-dimethyl-1-oxobutan-2-yl)amino)-12-oxododecanoyl)piperazin-1-yl)prop-1-yn-1-yl)phenoxy)propyl)thiazole-4-carboxylic acid] was 16.23%; that for `Cc1ncsc1-c1ccc(CNC(=O)[C@@H]2C[C@@H](O)CN2C(=O)[C@@H](NC(=O)CCCCCCCCCCC(=O)N2CCN(CC#Cc3ccc(OCCCc4sc(N5CCCc6c5nnc(Nc5nc7ccccc7s5)c6C)nc4C(=O)O)c(F)c3)CC2)C(C)(C)C)cc1` [Example 48, 2-(3-(benzo[d]thiazol-2-ylamino)-4-methyl-6,7-dihydropyrido [2,3-c]pyridazin-8(5H)-yl)-5-(3-(2-fluoro-4-(3-(4-(12-(((S)-1-((2S,4R)-4-hydroxy-2-((4-(4-methylthiazol-5-yl)benzyl)carbamoyl)pyrrolidin-1-yl)-3,3-dimethyl-1-oxobutan-2-yl)amino)-12-oxododecanoyl)piperazin-1-yl)prop-1-yn-1-yl)phenoxy)propyl)thiazole-4-carboxylic acid] was 1.05%.
